Results: the kinase profiling compilation of Christmann-Franck et al. (2016)

Assays:
Assay in all cases: radiometric filter-binding kinase assay, Kinase HotSpot
Settings in all cases: compound 0.5 µM; ATP 10 µM
ACVR1B (human) = ACVR1B (human) (UniProt P36896)
ALK (human) = ALK (human) (UniProt Q9UM73)
AURKB (human) = AURKB (human) (UniProt Q96GD4)
AXL (human) = AXL (human) (UniProt P30530)
BRAF (human) = BRAF (human) (UniProt P15056)
CAMK1G (human) = CAMK1G (human) (UniProt Q96NX5)
CAMKK2 (human) = CAMKK2 (human) (UniProt Q96RR4)
CDK6 CCND1 (human) = CDK6 CCND1 (human) (UniProt Q00534+P24385)
CDK6 CCND3 (human) = CDK6 CCND3 (human) (UniProt P30281+Q00534)
CDK6 CCND3 (human), sequence (P30281 whole entry, looked up): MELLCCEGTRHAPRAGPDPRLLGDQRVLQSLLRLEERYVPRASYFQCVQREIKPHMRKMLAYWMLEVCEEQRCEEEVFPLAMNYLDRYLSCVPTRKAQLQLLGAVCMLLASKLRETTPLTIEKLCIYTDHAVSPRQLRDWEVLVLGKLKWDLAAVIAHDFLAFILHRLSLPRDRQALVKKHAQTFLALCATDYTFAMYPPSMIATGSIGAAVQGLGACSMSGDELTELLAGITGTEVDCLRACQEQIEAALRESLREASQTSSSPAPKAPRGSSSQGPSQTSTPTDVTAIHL
CDK6 CCND3 (human), sequence (Q00534 whole entry, looked up): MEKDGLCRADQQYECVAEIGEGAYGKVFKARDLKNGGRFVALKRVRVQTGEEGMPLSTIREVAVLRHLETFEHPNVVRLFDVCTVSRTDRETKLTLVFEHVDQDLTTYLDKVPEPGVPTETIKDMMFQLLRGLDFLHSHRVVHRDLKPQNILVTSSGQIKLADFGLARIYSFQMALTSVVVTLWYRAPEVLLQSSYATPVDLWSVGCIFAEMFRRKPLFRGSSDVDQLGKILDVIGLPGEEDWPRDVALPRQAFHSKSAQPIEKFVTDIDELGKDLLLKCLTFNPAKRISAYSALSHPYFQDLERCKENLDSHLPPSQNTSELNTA

CHEK2 (human) = CHEK2 (human) (UniProt O96017)
CLK2 (human) = CLK2 (human) (UniProt P49760)
DMPK (human) = DMPK (human) (UniProt Q09013)
DYRK1B (human) = DYRK1B (human) (UniProt Q9Y463)
DYRK4 (human) = DYRK4 (human) (UniProt Q9NR20)
EGFR (human) = EGFR (human) (UniProt P00533)
EPHA4 (human) = EPHA4 (human) (UniProt P54764)
EPHA6 (human) = EPHA6 (human) (UniProt Q9UF33)
HCK (human) = HCK (human) (UniProt P08631)
IKBKE (human) = IKBKE (human) (UniProt Q14164)
LCK (human) = LCK (human) (UniProt P06239)
LRRK2 (human) = LRRK2 (human) (UniProt Q5S007)
LRRK2 (human), sequence (Q5S007 whole entry, looked up): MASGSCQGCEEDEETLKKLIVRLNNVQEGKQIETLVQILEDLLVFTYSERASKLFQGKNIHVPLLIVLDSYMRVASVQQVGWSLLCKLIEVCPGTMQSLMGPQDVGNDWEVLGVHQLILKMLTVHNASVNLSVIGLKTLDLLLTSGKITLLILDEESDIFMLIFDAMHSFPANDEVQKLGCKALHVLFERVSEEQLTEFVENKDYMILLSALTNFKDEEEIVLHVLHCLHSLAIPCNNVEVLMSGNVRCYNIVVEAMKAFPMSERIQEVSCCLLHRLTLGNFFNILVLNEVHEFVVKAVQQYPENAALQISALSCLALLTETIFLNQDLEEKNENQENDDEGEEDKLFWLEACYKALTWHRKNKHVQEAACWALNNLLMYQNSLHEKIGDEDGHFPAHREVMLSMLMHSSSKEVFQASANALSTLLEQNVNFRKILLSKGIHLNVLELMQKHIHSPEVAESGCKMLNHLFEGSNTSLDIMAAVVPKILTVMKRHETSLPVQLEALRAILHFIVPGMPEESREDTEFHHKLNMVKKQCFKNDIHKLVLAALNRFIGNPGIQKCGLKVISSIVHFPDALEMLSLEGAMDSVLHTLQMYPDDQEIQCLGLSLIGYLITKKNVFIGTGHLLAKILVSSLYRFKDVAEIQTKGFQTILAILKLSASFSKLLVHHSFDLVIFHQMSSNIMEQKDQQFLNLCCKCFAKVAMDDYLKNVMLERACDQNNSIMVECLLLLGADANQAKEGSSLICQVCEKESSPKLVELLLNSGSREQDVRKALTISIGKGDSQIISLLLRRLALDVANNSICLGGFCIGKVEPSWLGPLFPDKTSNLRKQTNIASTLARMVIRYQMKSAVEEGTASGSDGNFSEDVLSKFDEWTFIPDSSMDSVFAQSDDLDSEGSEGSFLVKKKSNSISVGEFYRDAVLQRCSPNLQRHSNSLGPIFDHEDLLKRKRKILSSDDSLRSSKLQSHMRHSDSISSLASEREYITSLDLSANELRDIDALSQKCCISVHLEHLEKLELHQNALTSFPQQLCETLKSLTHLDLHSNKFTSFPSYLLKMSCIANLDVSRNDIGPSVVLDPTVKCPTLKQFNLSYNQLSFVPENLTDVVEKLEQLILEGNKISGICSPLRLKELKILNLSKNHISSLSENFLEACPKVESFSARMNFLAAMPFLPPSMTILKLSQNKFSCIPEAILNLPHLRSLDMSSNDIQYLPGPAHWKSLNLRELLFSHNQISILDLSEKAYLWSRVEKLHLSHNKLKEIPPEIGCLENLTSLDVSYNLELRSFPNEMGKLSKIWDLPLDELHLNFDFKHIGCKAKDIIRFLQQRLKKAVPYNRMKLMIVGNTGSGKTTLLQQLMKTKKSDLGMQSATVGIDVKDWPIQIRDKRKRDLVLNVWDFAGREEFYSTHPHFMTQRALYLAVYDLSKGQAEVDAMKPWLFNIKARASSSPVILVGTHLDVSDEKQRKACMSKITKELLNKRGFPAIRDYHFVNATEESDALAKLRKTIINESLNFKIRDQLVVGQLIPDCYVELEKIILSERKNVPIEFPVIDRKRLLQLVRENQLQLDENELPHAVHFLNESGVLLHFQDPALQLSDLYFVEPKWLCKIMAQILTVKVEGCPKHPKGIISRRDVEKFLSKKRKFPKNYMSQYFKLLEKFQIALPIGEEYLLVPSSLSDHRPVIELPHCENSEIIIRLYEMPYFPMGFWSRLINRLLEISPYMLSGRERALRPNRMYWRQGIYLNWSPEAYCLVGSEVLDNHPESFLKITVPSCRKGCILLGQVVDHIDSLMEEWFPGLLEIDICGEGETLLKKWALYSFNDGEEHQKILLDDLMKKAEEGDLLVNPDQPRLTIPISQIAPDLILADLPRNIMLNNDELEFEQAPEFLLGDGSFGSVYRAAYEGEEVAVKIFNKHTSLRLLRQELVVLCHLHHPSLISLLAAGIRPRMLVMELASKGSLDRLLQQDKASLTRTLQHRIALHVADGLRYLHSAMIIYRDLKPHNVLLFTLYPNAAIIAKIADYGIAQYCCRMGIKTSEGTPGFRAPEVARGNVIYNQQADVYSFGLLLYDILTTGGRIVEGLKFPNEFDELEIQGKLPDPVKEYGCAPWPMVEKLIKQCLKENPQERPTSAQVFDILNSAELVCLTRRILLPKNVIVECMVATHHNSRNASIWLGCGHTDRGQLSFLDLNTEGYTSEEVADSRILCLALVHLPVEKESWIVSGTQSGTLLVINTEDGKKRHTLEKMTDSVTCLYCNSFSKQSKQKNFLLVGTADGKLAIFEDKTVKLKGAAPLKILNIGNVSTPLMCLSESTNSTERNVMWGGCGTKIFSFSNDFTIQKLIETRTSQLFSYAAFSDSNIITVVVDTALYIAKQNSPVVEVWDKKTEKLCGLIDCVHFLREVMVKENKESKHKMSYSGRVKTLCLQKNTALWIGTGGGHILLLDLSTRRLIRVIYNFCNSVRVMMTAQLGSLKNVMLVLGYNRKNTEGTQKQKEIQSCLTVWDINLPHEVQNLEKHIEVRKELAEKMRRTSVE

MAPKAPK3 (human) = MAPKAPK3 (human) (UniProt Q16644)
MST1R (human) = MST1R (human) (UniProt Q04912)
MYLK2 (human) = MYLK2 (human) (UniProt Q9H1R3)
MYO3B (human) = MYO3B (human) (UniProt Q8WXR4)
NEK4 (human) = NEK4 (human) (UniProt P51957)
PAK1 (human) = PAK1 (human) (UniProt Q13153)
PAK7 (human) = PAK7 (human) (UniProt Q9P286)
PDPK1 (human) = PDPK1 (human) (UniProt O15530)
PHKG1 (human) = PHKG1 (human) (UniProt Q16816)
PLK2 (human) = PLK2 (human) (UniProt Q9NYY3)
PLK3 (human) = PLK3 (human) (UniProt Q9H4B4)
PNCK (human) = PNCK (human) (UniProt Q6P2M8)
PNCK (human), sequence (Q6P2M8 whole entry, looked up): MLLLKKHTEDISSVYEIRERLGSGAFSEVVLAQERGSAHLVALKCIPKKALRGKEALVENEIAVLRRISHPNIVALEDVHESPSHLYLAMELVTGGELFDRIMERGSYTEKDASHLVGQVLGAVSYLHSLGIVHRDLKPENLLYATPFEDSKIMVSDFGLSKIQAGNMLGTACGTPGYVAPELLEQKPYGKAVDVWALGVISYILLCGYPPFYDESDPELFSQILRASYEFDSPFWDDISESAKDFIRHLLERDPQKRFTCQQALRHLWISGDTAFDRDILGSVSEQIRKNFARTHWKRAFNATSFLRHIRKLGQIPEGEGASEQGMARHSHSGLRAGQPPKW

PRKACG (human) = PRKACG (human) (UniProt P22612)
SIK2 (human) = SIK2 (human) (UniProt Q9H0K1)
SIK2 (human), sequence (Q9H0K1 whole entry, looked up): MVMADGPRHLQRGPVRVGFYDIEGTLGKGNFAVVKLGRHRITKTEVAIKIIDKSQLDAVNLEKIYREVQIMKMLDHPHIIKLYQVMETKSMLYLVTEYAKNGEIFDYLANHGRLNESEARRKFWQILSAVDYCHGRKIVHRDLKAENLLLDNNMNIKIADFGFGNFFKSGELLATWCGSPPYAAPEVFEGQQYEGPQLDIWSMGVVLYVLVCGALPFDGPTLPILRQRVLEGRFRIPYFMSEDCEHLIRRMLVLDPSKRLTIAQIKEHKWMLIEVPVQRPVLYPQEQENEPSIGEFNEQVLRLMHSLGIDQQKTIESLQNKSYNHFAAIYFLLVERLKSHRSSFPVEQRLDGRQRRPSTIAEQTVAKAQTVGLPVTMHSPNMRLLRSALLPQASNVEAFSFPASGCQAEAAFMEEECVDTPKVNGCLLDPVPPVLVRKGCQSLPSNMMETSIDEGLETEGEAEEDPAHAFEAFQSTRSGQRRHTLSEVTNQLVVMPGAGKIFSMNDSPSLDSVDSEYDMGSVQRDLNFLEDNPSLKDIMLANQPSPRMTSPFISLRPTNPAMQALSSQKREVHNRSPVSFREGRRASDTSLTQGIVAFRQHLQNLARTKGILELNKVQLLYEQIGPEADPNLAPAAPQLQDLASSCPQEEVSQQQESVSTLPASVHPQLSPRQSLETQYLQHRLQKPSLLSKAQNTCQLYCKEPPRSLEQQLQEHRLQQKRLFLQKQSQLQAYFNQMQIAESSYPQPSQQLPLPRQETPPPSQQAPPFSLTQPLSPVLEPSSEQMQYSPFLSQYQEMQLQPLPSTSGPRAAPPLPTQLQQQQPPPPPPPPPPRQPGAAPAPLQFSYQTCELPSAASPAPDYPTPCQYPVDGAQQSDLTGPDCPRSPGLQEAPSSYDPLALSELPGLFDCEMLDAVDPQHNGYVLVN

SRPK3 (human) = SRPK3 (human) (UniProt Q9UPE1)
STK33 (human) = STK33 (human) (UniProt Q9BYT3)
STK38 (human) = STK38 (human) (UniProt Q15208)
TAOK2 (human) = TAOK2 (human) (UniProt Q9UL54)
TLK2 (human) = TLK2 (human) (UniProt Q86UE8)
TXK (human) = TXK (human) (UniProt P42681)
ULK3 (human) = ULK3 (human) (UniProt Q6PHR2)

CAMK1G (human), sequence (Q96NX5 whole entry, looked up): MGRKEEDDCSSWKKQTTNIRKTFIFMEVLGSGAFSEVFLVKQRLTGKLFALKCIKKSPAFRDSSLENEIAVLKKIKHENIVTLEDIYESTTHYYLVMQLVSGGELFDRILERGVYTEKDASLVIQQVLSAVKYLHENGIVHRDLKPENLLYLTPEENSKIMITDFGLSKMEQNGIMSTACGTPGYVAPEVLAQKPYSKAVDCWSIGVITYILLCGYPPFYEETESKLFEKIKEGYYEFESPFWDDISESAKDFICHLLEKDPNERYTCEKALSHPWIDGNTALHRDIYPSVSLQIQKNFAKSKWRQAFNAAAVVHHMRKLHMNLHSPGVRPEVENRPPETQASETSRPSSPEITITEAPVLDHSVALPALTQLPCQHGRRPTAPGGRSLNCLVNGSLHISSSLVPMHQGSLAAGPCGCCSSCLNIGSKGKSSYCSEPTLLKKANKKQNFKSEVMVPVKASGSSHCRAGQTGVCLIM

For `O=C(O)c1ccc2c3c1cccc3c(=O)n1c3ccccc3nc21`, the residual activity (ACVR1B (human)) was 93.5%, the residual activity (ALK (human)) was 92.7% and the residual activity (AURKB (human)) was 82.5%. It also gave a residual activity (AXL (human)) of 94.3%, a residual activity (BRAF (human)) of 95.1% and a residual activity (CAMK1G (human)) of 99%. The residual activity (CAMKK2 (human)) was 7.88%, the residual activity (CDK6 CCND1 (human)) was 90.6% and the residual activity (CDK6 CCND3 (human)) was 105%. The residual activity (CHEK2 (human)) was 75.2%, the residual activity (CLK2 (human)) was 91% and the residual activity (DMPK (human)) was 98.9%. For the same molecule, the residual activity (DYRK1B (human)) was 40.1%, the residual activity (DYRK4 (human)) was 95.9% and the residual activity (EGFR (human)) was 96.5%. It also gave a residual activity (EPHA4 (human)) of 103%, a residual activity (EPHA6 (human)) of 105% and a residual activity (HCK (human)) of 96.7%. It also gave a residual activity (IKBKE (human)) of 57.3%, a residual activity (LCK (human)) of 101% and a residual activity (LRRK2 (human)) of 70.1%. It also gave a residual activity (MAPKAPK3 (human)) of 103%, a residual activity (MST1R (human)) of 100% and a residual activity (MYLK2 (human)) of 99.6%. The residual activity (MYO3B (human)) was 96.7%, the residual activity (NEK4 (human)) was 60.4% and the residual activity (PAK1 (human)) was 95.6%. The residual activity (PAK7 (human)) was 98.7%, the residual activity (PDPK1 (human)) was 108% and the residual activity (PHKG1 (human)) was 91.5%. The residual activity (PLK2 (human)) was 97%, the residual activity (PLK3 (human)) was 93.9% and the residual activity (PNCK (human)) was 101%. For the same molecule, the residual activity (PRKACG (human)) was 127%, the residual activity (SIK2 (human)) was 92.8% and the residual activity (SRPK3 (human)) was 82.8%. It also gave a residual activity (STK33 (human)) of 78.8%, a residual activity (STK38 (human)) of 97.5% and a residual activity (TAOK2 (human)) of 95.2%. For the same molecule, the residual activity (TLK2 (human)) was 91.2%, the residual activity (TXK (human)) was 102% and the residual activity (ULK3 (human)) was 79.8%.
